Experimental data from patent US20230212549A1, “COMPOUNDS COMPRISING A […] LIGAND AND USE THEREOF” (priority 2021, published 2023).
Numbered stars: 1 amine (or outer) side, 2 acyl side, 3 side chain; on linkers, the order of the positions; unused ones are H or OH. Bridge positions count the residues as written; N and C are the ends. Square brackets hold non-standard residues; d marks the D form. Peptide text beside a SMILES is read from it. mXylylene = c1cc(C[*:1])cc(C[*:2])c1; Tic = O=C(O)[C@@H]1Cc2ccccc2CN1

Experiments:
[1] = target: T1, FAP-expressing human WI-38 fibroblasts (Homo sapiens, UniProt Q12884); experiment: Competitive FACS binding assay
T1 construct: FAP-expressing human WI-38 fibroblasts (ECACC) were cultured in EMEM; host or cells: WI-38 human fibroblasts
T1 sequence (Q12884 whole entry): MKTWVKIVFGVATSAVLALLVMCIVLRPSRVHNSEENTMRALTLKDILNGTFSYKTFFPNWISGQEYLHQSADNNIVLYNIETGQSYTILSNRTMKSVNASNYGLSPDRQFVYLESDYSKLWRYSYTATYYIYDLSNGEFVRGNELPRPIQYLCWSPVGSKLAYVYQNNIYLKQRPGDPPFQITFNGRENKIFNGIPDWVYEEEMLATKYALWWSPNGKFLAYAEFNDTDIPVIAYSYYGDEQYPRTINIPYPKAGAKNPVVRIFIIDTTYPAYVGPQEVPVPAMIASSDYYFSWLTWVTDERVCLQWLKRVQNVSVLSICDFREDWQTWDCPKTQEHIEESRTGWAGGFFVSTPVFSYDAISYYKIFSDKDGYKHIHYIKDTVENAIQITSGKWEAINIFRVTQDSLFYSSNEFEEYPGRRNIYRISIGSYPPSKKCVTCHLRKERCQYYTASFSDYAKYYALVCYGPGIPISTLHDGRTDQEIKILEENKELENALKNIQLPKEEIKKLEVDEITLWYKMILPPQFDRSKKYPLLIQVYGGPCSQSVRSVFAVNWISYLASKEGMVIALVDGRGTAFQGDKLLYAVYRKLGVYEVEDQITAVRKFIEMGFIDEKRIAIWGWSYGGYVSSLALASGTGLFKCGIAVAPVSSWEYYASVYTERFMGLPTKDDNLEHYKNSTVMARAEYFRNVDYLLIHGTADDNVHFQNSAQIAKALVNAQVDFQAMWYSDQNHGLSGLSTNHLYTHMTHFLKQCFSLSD
Experimental: Cells were analyzed in an Attune NxT flow cytometer. […] […].
Cells were analyzed in an Attune NxT flow cytometer. […]

HEK-FAP tumor = details: ^68Ga-labeled, PET/CT
Human recombinant FAP [2] = target: T2, Human recombinant FAP (Homo sapiens, UniProt Q12884); experiment: FRET-based FAP protease activity assay; format: biochemical; parameters: purchased R&D systems 3715-SE
T2 sequence (Q12884 whole entry): as above

[3] = Plasma stability assay, mouse plasma; format: in vitro ADME; details: mouse, plasma, 37° C., read-out: % intact compound remaining after incubation, Mouse plasma; for remaining at 4 h, 9.8 µM: 4 h incubation
Human recombinant FAP [4] = target: T2, Human recombinant FAP; experiment: Surface plasmon resonance (Biacore) assay; format: binding
[5] = Radiochemical purity by HPLC of ^99mTc-labeled compounds; format: physicochemical; details: 99Tc-labeled compounds
Experimental: 100-500 MBq of ^99mTcO4 (in saline) were mixed with 11 μl of 0.5 M phosphate buffer pH 11.5-12.0 and 1.1 μl of 0.1 M trisodium citrate per 100 μl radionuclide solution. […] The mixture was incubated for 30 min at 25-50′° C. At the end of the incubation time, the mixture was neutralized with 3.0 μl 1 M HCl per 10 μl phosphate buffer and TWEEN-20 was added at a final concentration of 0.100.

in vivo = details: swiss nude, mouse, iv
[6] = pIC50 Category (activity), Recombinant human FAP

Q: With `CCCC[C@H](NC(=O)CCC(=O)NCCCOCCOCCOCCCNC(=O)CCC(C(=O)O)N1CCN(CC(=O)O)CCN(CC(=O)O)CC1)C(=O)N[C@H]1CSCc2cccc(c2)CSCC(C(=O)O)NC(=O)[C@H](Cc2ccccc2)NC(=O)[C@H](CCC(N)=O)NC(=O)[C@H]([C@@H](C)O)NC(=O)[C@@H]2CCCN2C(=O)[C@@H]2CCCN2C1=O` (stereo partly drawn) [3BP-4713, NODAGA-Ttds-Nle-[Cys(3MeBn)-Pro-Pro-Thr-Gln-Phe-Cys]-OH] as the compound, how does the IC50 [1] read?
A: Its IC50 is 10 to 79.4 nM.

Q: What about the “uptake BPS 0.25 h” value (HEK-FAP tumor; BPS (blood pool surrogate), 0.25 h post tracer injection) of the same compound?
A: Its value is 2.27 % ID/g.

Q: What about the “uptake BPS 1 h” value (HEK-FAP tumor; BPS (blood pool surrogate), 1 h post tracer injection) of the same compound?
A: The value was 0.77 % ID/g.

Q: What about the “uptake BPS 3 h” value (HEK-FAP tumor; BPS (blood pool surrogate), 3 h post tracer injection) of the same compound?
A: Its value is 0.19 % ID/g.

Q: What about the “uptake Tumor 0.25 h” value (HEK-FAP tumor; HEK-FAP tumor, 0.25 h post tracer injection) of the same compound?
A: The value was 3.46 % ID/g.

Q: And the “uptake Tumor 1 h” value (HEK-FAP tumor; HEK-FAP tumor, 1 h post tracer injection)?
A: The value was 3.90 % ID/g.

Q: And the “uptake Tumor 3 h” value (HEK-FAP tumor; HEK-FAP tumor, 3 h post tracer injection)?
A: The value was 3.21 % ID/g.

Q: And the “uptake Kidneys 0.25 h” value (HEK-FAP tumor; kidneys, 0.25 h post tracer injection)?
A: Its value is 9.05 % ID/g.

Q: And the “uptake Kidneys 1 h” value (HEK-FAP tumor; kidneys, 1 h post tracer injection)?
A: Its value is 2.50 % ID/g.

Q: And the “uptake Kidneys 3 h” value (HEK-FAP tumor; kidneys, 3 h post tracer injection)?
A: The value was 0.82 % ID/g.

Q: What about the IC50 (Human recombinant FAP [2]; [6]) of the same compound?
A: The IC50 was 10 to 79.4 nM.

Q: With `CSCC[C@@H](NC(C)=O)C(=O)N[C@H]1CSCc2cccc(c2)CSC[C@@H](C(=O)N[C@@H](CC(=O)O)C(=O)N[C@@H](Cc2c[nH]cn2)C(=O)N[C@@H](Cc2ccccc2)C(=O)N[C@@H](CCCNC(=N)N)C(=O)N[C@@H](CC(=O)O)C(N)=O)NC(=O)[C@H](Cc2ccccc2)NC(=O)[C@H](CCC(=O)O)NC(=O)[C@H]([C@@H](C)O)NC(=O)[C@@H]2CCCN2C(=O)[C@@H]2CCCN2C1=O` [3BP-3187, Ac-met-[Cys(3MeBn)-Pro-Pro-Thr-Glu-Phe-Cys]-Asp-His-Phe-Arg-Asp-NH2] (Ac-[dM]CPPTEFCDHFRD-NH2; linker 2-8 via mXylylene) as the compound, how does the remaining at 4 h, 9.8 µM [3] read?
A: The remaining at 4 h, 9.8 µM was 100%.

Q: With `CCCCCC(=O)N[C@H]1CSCc2cc(cc(CN3CCN(C(=O)CN4CCN(CC(=O)O)CCN(CC(=O)O)CCN(CC(=O)O)CC4)CC3)c2)CSC[C@@H](C(=O)O)NC(=O)[C@H](Cc2ccccc2)NC(=O)[C@H](CCC(N)=O)NC(=O)[C@H]([C@@H](C)O)NC(=O)[C@@H]2CCCN2C(=O)[C@@H]2CCCN2C1=O` [3BP-3555, Hex-[Cys(tMeBn(DOTA-PP))-Pro-Pro-Thr-Gln-Phe-Cys]-OH] as the compound, how does the remaining at 24 h, 9.8 µM ([3]; 24 h incubation) read?
A: The remaining at 24 h, 9.8 µM was 88%.

Q: And the IC50 [1]?
A: The IC50 was 10 to 79.4 nM.

Q: And the Kd (Human recombinant FAP [4])?
A: Its Kd is under 10 nM.

Q: And the IC50 (Human recombinant FAP [2]; pIC50 Category (Activity), FRET-based FAP protease activity assay, recombinant human FAP, 37° C.)?
A: Its IC50 is under 10 nM.

Q: For `CSCC[C@H](NC(C)=O)C(=O)N[C@H]1CSCc2cccc(c2)CSC[C@@H](C(=O)N[C@@H](CC(=O)O)C(=O)N[C@@H](Cc2c[nH]cn2)C(=O)N2Cc3ccccc3C[C@H]2C(=O)N[C@@H](CCCNC(=N)N)C(=O)N[C@@H](CC(=O)O)C(N)=O)NC(=O)[C@H](Cc2ccccc2)NC(=O)[C@H](CCC(=O)O)NC(=O)[C@H]([C@@H](C)O)NC(=O)[C@@H]2CCCN2C(=O)[C@@H]2CCCN2C1=O` [3BP-3189, Ac-Met-[Cys(3MeBn)-Pro-Pro-Thr-Glu-Phe-Cys]-Asp-His-Tic-Arg-Asp-NH2] (Ac-MCPPTEFCDH[Tic]RD-NH2; linker 2-8 via mXylylene), which remaining at 4 h, 9.8 µM [3] is on record?
A: Its remaining at 4 h, 9.8 µM is 100%.

Q: With `CCCC[C@H](NC(=O)CCOCCOCCOCCOCCOCCOCCNC(=O)C(CNCCN)CNCCN)C(=O)N[C@H]1CSCc2cccc(c2)CSCC(C(=O)O)NC(=O)[C@H](Cc2ccccc2)NC(=O)[C@H](CCC(N)=O)NC(=O)[C@H]([C@@H](C)O)NC(=O)[C@@H]2CCCN2C(=O)[C@@H]2CCCN2C1=O` (stereo partly drawn) [3BP-4551, N4Ac-PEG6-Nle-[Cys(3MeBn)-Pro-Pro-Thr-Gln-Phe-Cys]-OH] as the compound, how does the IC50 [1] read?
A: The IC50 was 10 to 79.4 nM.

Q: What about the Kd (Human recombinant FAP [4]) of the same compound?
A: Its Kd is 10 to 79.4 nM.

Q: What about the “HPLC Area % appr. 4 h post end of synthesis” value [5] of the same compound?
A: Its value is 90.8%.

Q: And the “HPLC Area % at end of synthesis” value [5]?
A: The value was 94.1%.

Q: And the tissue uptake at 1 h (in vivo; blood pool surrogate (BPS))?
A: The tissue uptake at 1 h was 0.18 %ID/g.

Q: What about the tissue uptake at 3 h (in vivo; blood pool surrogate (BPS)) of the same compound?
A: The tissue uptake at 3 h was 0.07 %ID/g.

Q: What about the tissue uptake at 6 h (in vivo; blood pool surrogate (BPS)) of the same compound?
A: Its tissue uptake at 6 h is 0.04 %ID/g.

Q: And the tissue uptake at 1 h (in vivo; kidneys)?
A: Its tissue uptake at 1 h is 4.34 %ID/g.

Q: And the tissue uptake at 3 h (in vivo; kidneys)?
A: Its tissue uptake at 3 h is 1.18 %ID/g.

Q: And the tissue uptake at 6 h (in vivo; kidneys)?
A: Its tissue uptake at 6 h is 0.5 %ID/g.

Q: And the tissue uptake at 1 h (in vivo; tumor)?
A: The tissue uptake at 1 h was 10.6 %ID/g.

Q: And the tissue uptake at 3 h (in vivo; tumor)?
A: The tissue uptake at 3 h was 7.31 %ID/g.

Q: And the tissue uptake at 6 h (in vivo; tumor)?
A: The tissue uptake at 6 h was 4.59 %ID/g.

Q: And the IC50 (Human recombinant FAP [2]; [6])?
A: Its IC50 is 10 to 79.4 nM.
